Drawing on patent US20230174523A1, “BENZENESULFONAMIDE DERIVATIVES AS TRAP1 MODULATORS AND USES THEREOF” (Amathus Therapeutics, Inc., priority 2020, published 2023), this text covers EC50 and Emax for 42 compounds.

The test has as its target T1, TRAP1 enzyme (Homo sapiens, UniProt Q12931).
T1 sequence (Q12931 60-704): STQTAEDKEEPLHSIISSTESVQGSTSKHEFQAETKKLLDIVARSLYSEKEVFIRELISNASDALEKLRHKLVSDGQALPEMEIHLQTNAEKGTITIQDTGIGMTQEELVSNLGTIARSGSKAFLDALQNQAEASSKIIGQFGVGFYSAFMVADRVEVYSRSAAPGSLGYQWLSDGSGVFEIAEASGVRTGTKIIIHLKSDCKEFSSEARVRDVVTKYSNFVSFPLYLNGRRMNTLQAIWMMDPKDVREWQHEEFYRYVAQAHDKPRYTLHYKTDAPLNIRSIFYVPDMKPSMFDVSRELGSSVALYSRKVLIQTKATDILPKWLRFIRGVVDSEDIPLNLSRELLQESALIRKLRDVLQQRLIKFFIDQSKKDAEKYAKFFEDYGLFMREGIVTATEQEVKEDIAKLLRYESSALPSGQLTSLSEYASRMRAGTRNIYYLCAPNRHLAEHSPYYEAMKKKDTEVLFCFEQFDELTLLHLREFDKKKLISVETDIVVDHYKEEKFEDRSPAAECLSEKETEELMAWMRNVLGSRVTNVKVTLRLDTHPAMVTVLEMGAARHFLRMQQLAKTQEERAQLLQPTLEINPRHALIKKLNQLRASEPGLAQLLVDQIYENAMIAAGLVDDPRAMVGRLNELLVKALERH
The test is described as follows: ADP Glo assay of TRAP1 ATPase activity. Type of test: biochemical. As to conditions: for EC50: TRAP1 ATPase activation, 150 nM Trap1, 20 μM ATP, geometric mean, read-out: ADP GLO DRC: GeoMean EC50; for Emax: read-out: ADP GLO DRC: Mean Emax. The method, then: Potency of test compounds to modulate the ATPase activity of TRAP1 enzyme was evaluated using ADP Glo assay. The assay is based on quantification of the ADP generated from ATP in the ATPase reaction. The assay is performed in two steps: first, after the ATPase reaction, an equal volume of ADP-Glo™ Reagent is added to terminate the ATPase reaction and deplete the remaining ATP. Second, the Kinase Detection Reagent is added to simultaneously convert ADP to ATP and allow the newly synthesized ATP to be measured using a luciferase/luciferin reaction.
All the assays were carried out in a 384-well Proxiplate. The buffer used was 25 mM Pipes pH-7.5, 40 mM KCl, 0.05 mM MgCl2, 0.025% BSA, 0.316 mM EGTA, 0.003% Empigen, 0.01% Igepal. 150 nM Trap1 enzyme was incubated with various concentrations of the test compound (0.79 μM-100 μM) at 37° C. for 30 mins (except in blank wells). 20 μM ATP was added to each well to start the reaction. The plate was spun for 1 min at 1200 rpm and then incubated at 37° C. for 60 mins. 5 μl of ADP Glo reagent was added to all the wells and spun the plate for 1 min at 1200 rpm and kept it on a shaker at ambient temperature for 60 mins. 10 μl of kinase detection mix was added to all the wells and the plate was read for Luminescence at 495 nm. The amount of ADP released was estimated from ATP/ADP standard curve generated at the same experimental conditions. Emax (Maximal percent activation) and EC50 (concentration for half maximal activation) were estimated by fitting the dose response data to a sigmoidal curve fitting equation using Graphpad Prism software V. 8.
In general terms: ADP-Glo first removes unused ATP, then detects ADP through luciferase.

Broadly, the EC50 is the concentration giving half of the maximal effect. For orientation: Emax means the maximal effect, on the per cent scale that the assay sets. On to `COc1ccc(NC(=O)c2ncc(-c3ccccc3)o2)cc1S(=O)(=O)Nc1c(C#N)cccc1C(F)(F)F` [Compound 1343, N-(3-(N-(2-cyano-6-(trifluoromethyl)phenyl)sulfamoyl)-4-methoxyphenyl)-5-phenyloxazole-2-carboxamide], for which the EC50 is 20 to 100 µM and the Emax fell in the range of 200 to 300%.

As for `COc1ccc(NC(=O)c2cc(-c3ccnn3C)c(Cl)s2)cc1S(=O)(=O)Nc1c(C)cccc1C` [Compound 1079], the EC50 is below 10 µM and the Emax lay within 160 to 199%.

Turning to `Cc1noc(C(C)C)c1C(=O)Nc1ccc(F)c(S(=O)(=O)Nc2ccc(Cl)cc2)c1` [Compound 751], the EC50 lay in the range of 10 to 20 µM and the Emax was 160 to 199%.

Take `COc1ccc(NC(=O)c2ncc(-c3cc(F)c(F)c(F)c3)o2)cc1S(=O)(=O)Nc1c(C)csc1C` [Compound 2519]: the EC50 was 20 to 100 µM and the Emax was 123 to 159%.

Take `COc1ccc(NC(=O)c2c[nH]c3cnccc23)cc1S(=O)(=O)Nc1c(C)cccc1C` [Compound 1288]: the EC50 lay within 20 to 100 µM and the Emax lay within 160 to 199%.

Take `COc1ccc(NC(=O)c2ccc3c(c2)n(C)c(=O)n3C)cc1S(=O)(=O)Nc1c(C)cccc1C` [Compound 1146]: the half-maximal effective concentration (EC50) is below 10 µM and the Emax is 200 to 300%.

As for `COc1ccc(NC(=O)c2cc(N3CCCC3)ccn2)cc1S(=O)(=O)Nc1c(C)cccc1C` [Compound 1077], the EC50 was below 10 µM and the Emax was in the range of 160 to 199%.

As for `CCOc1c(F)c(F)cc(C(=O)Nc2ccc(OC)c(S(=O)(=O)Nc3c(C)cccc3C)c2)c1F` [Compound 1145], the EC50 is below 10 µM and the Emax was 123 to 159%.

For the compound `COc1ccc(NC(=O)c2coc(-c3ccccc3)n2)cc1S(=O)(=O)Nc1c(C)cccc1C` [Compound 1301], the EC50 is below 10 µM and the Emax lay in the range of 160 to 199%.

Regarding `COc1ccc(NC(=O)c2cccnc2-c2cc(F)cc(F)c2)cc1S(=O)(=O)Nc1c(C)cccc1C` [Compound 1096], the EC50 lay within 10 to 20 µM and the Emax is 123 to 159%.

Turning to `COc1ccc(NC(=O)c2ccnc(-c3ccccc3)c2)cc1S(=O)(=O)Nc1c(C)cccc1C` [Compound 1285], the EC50 was below 10 µM and the Emax lay in the range of 200 to 300%.

As to `O=C(c1ccccc1)c1cccnc1C(=O)Nc1ccc(F)c(S(=O)(=O)Nc2ccc(Cl)cc2)c1` [Compound 836], the EC50 lay within 20 to 100 µM and the Emax fell in the range of 200 to 300%.

Turning to `COc1ccc(NC(=O)c2cccc(-n3cncn3)c2)cc1S(=O)(=O)Nc1c(C)cccc1C` [Compound 1126], the EC50 is 10 to 20 µM and the Emax is 160 to 199%.

As for `COc1ccc(NC(=O)c2c[nH]c(-c3c(F)cccc3F)n2)cc1S(=O)(=O)Nc1ccc(Br)cc1` [Compound 1328], the EC50 was below 10 µM and the Emax was 160 to 199%.

In the case of `COc1ccc(NC(=O)c2cc(C)nc3onc(C)c23)cc1S(=O)(=O)Nc1c(C)cccc1C` [Compound 1226], the EC50 lay within 20 to 100 µM and the Emax lay in the range of 123 to 159%.

Turning to `COc1ccc(NC(=O)c2csc(C)c2C)cc1S(=O)(=O)Nc1c(C)cccc1C` [Compound 1005], the EC50 was below 10 µM and the maximum response (Emax) is 200 to 300%.

Take `O=C(Nc1ccc(F)c(S(=O)(=O)Nc2ccc(Cl)cc2)c1)c1scnc1C1CC1` [Compound 724]: the half-maximal effective concentration (EC50) lay in the range of 10 to 20 µM and the Emax was in the range of 160 to 199%.

As for `Cc1onc(-c2ccccc2Cl)c1C(=O)Nc1ccc(F)c(S(=O)(=O)Nc2ccc(Cl)cc2)c1` [Compound 728], the EC50 lay within 10 to 20 µM and the Emax was 123 to 159%.

Turning to `COc1ccc(NC(=O)c2ccccc2C2CC2)cc1S(=O)(=O)Nc1c(C)cccc1C` [Compound 1028], the EC50 was 10 to 20 µM and the Emax was in the range of 160 to 199%.

With `COc1ccc(NC(=O)c2cccc3c2OC(C)(C)CC3)cc1S(=O)(=O)Nc1c(C)cccc1C` [Compound 1040], the EC50 is below 10 µM and the Emax fell in the range of 200 to 300%.

For `CCn1nc(C(C)C)cc1C(=O)Nc1ccc(F)c(S(=O)(=O)Nc2ccc(Cl)cc2)c1` [Compound 1282], the half-maximal effective concentration (EC50) was 20 to 100 µM and the Emax fell in the range of 123 to 159%.

Regarding `COc1ccc(NC(=O)c2cnc(-c3ccccc3)[nH]2)cc1S(=O)(=O)Nc1c(C)cc(Cl)cc1C` [Compound 443], the concentration giving a half-maximal response (EC50) was below 10 µM and the Emax lay in the range of 160 to 199%.

`COc1ccc(NC(=O)c2ccc3sc(C)nc3c2)cc1S(=O)(=O)Nc1c(C)cccc1C` [Compound 1269]: the EC50 was in the range of 10 to 20 µM and the Emax was in the range of 160 to 199%.

For the compound `COc1ccc(NC(=O)c2cccc(N3CCCC3=O)c2)cc1S(=O)(=O)Nc1c(C)cccc1C` [Compound 1123], the EC50 is 10 to 20 µM and the Emax fell in the range of 200 to 300%.

`COc1ccc(NC(=O)c2ncc(-c3ccccc3)o2)cc1S(=O)(=O)Nc1ccc(C)nc1F` [Compound 1684]: the EC50 fell in the range of 20 to 100 µM and the Emax is 123 to 159%.

Regarding `COc1ccc(NC(=O)c2cc(Br)cnc2C)cc1S(=O)(=O)Nc1c(C)cccc1C` [Compound 1062], the EC50 lay in the range of 20 to 100 µM and the Emax is 160 to 199%.

In the case of `COc1ccc(NC(=O)c2ncc(-c3ccccc3)o2)cc1S(=O)(=O)Nc1c(C(C)C)ccnc1C(C)C` [Compound 1809], the EC50 was below 10 µM and the Emax is 160 to 199%.

Consider `COc1ccc(NC(=O)c2ccc(F)c(-c3c(F)cccc3F)n2)cc1S(=O)(=O)Nc1c(C)cccc1C` [Compound 1033], for which the EC50 was below 10 µM and the maximum response (Emax) was in the range of 160 to 199%.

As for `COc1ccc(NC(=O)c2ncc(-c3ccccc3)o2)cc1S(=O)(=O)Nc1sc(C)c(C)c1C#N` [Compound 1672], the EC50 was in the range of 10 to 20 µM and the Emax was 160 to 199%.

Turning to `O=C(Nc1ccc(F)c(S(=O)(=O)Nc2ccc(Cl)cc2)c1)c1cnccc1C(F)(F)F` [Compound 784], the EC50 lay within 20 to 100 µM and the Emax lay in the range of 123 to 159%.

Take `COc1ccc(NC(=O)c2cnc(C3CC3)o2)cc1S(=O)(=O)Nc1c(C)cccc1C` [Compound 1175]: the EC50 was in the range of 20 to 100 µM and the maximal effect (Emax) was 160 to 199%.

Consider `COc1ccc(NC(=O)c2ccc3c(c2)ncn3C)cc1S(=O)(=O)Nc1c(C)cccc1C` [Compound 1228], for which the EC50 was in the range of 20 to 100 µM and the Emax lay in the range of 123 to 159%.

`COc1ccc(NC(=O)c2cn(C(C)C)cc2C(F)(F)F)cc1S(=O)(=O)Nc1c(C)cccc1C` [Compound 1103]: the EC50 was below 10 µM and the Emax fell in the range of 160 to 199%.

Turning to `COc1ccc(NC(=O)c2ncn(-c3ccccc3)n2)cc1S(=O)(=O)Nc1c(C)cccc1C` [Compound 1270], the concentration giving a half-maximal response (EC50) is 10 to 20 µM and the Emax is 200 to 300%.

As for `COc1ccc(NC(=O)c2cc(C(C)C)on2)cc1S(=O)(=O)Nc1c(C)cccc1C` [Compound 1032], the half-maximal effective concentration (EC50) is below 10 µM and the Emax lay in the range of 200 to 300%.

Regarding `COc1ccc(NC(=O)c2nc3c(C)cccc3s2)cc1S(=O)(=O)Nc1c(C)cccc1C` [Compound 1125], the EC50 was below 10 µM and the Emax is 160 to 199%.

As to `COc1ccc(NC(=O)c2c(I)cnn2C)cc1S(=O)(=O)Nc1c(C)cccc1C` [Compound 1088], the EC50 was 20 to 100 µM and the Emax lay in the range of 160 to 199%.

Consider `Cn1cnc2cc(C(=O)Nc3ccc(F)c(S(=O)(=O)Nc4ccc(Cl)cc4)c3)ccc2c1=O` [Compound 1256], for which the EC50 fell in the range of 20 to 100 µM and the Emax was 123 to 159%.

For the compound `COc1ccc(NC(=O)c2ccc3c(c2)C2CCCS2(=O)=N3)cc1S(=O)(=O)Nc1c(C)cccc1C` (stereo not drawn) [Compound 1016], the EC50 is 20 to 100 µM and the maximum response (Emax) was in the range of 200 to 300%.

As for `COc1ccc(NC(=O)c2cc(C3CC3)on2)cc1S(=O)(=O)Nc1c(C)cccc1C` [Compound 1031], the concentration giving a half-maximal response (EC50) lay within 10 to 20 µM and the Emax was 200 to 300%.

As for `Cc1ccc(Sc2ncccc2C(=O)Nc2ccc(F)c(S(=O)(=O)Nc3ccc(Cl)cc3)c2)cc1` [Compound 764], the EC50 fell in the range of 10 to 20 µM and the Emax was 123 to 159%.

Regarding `COc1ccc(NC(=O)c2c(C(F)(F)F)ccnc2C)cc1S(=O)(=O)Nc1c(C)cccc1C` [Compound 1153], the EC50 fell in the range of 20 to 100 µM and the Emax lay within 123 to 159%.
